{
  "source": "patent US10538564B2",
  "about": "“Peptides having osteoblast growth-promoting activity and use thereof” (PHARMA FOODS INTERNATIONAL CO., LTD., priority 2014, dated 2020)",
  "key": {"[1]": {"test_system": "Sprague-Dawley male rats fed with a low-calcium diet", "test": "Bone density recovery test after low-calcium diet (DXA, pQCT)", "format": "in vivo, rat", "conditions": "oral 1, 10 or 100 mg/kg·day for seven days after one week low-calcium diet; vs control", "procedure": "Sprague-Dawley male rats at three weeks old were initially fed with a low-calcium diet (containing 0.05% calcium carbonate) for one week, and then fed with a normal diet (containing 1.2% calcium carbonate). The synthetic peptide (No. 1) or physiological saline (control) was administered to the rats by oral gavage using a gastric tube once a day for seven days. The dose of the synthetic peptide was 1, 10 or 100 mg/kg·day. After the oral administration on day 7, the rats were euthanized by bloodletting under anesthesia, and the femurs and tibiae were harvested. The bone volume and bone morphology of the tibiae and femurs were measured by dual energy x-ray absorptiometry (DXA) and peripheral quantitative computed tomography (pQCT)."}, "[2]": {"test_system": "aged female rats (13 to 14 months old)", "test": "Bone formation-promoting effect in aged rats", "format": "in vivo, rat", "conditions": "oral 1, 10 or 100 mg/kg·day, 20 weeks", "procedure": "Synthetic peptide No. 1 was administered to aged female rats (13 to 14 months old, ten rats in each group) by oral gavage using a gastric tube once a day for 20 weeks. The dose of the synthetic peptide was 1, 10 or 100 mg/kg·day."}, "[3]": {"test_system": "Crlj:W1 male rats at four weeks old", "test": "Mineral apposition rate in secondary cancellous bone, 7-day oral administration", "format": "in vivo, rat", "conditions": "seven days", "procedure": "One of the synthetic peptides (No. 1) or water for injection (control) was administered to Crlj:W1 male rats at four weeks old by oral gavage using a gastric tube once a day for seven days (n=10 in each group). The dose of the synthetic peptide was 1, 10 or 100 mg/kg-day. As a positive control, human growth hormone (hGH) (Norditropin, Standard Commodity Classification No. of Japan: 872412) was subcutaneously administered at 500 μg/kg·day once a day for seven days. As fluorescent labels for the site of bone formation, tetracycline (20 mg/kg) was subcutaneously administered on day 4 after the administration of the peptide or control, and then calcein (10 mg/kg) was subcutaneously administered on day 6 after the administration of the peptide or control. After the administration of the test sample on day 7, the rats were kept under fasting conditions. Twenty-four hours later, the rats were euthanized by bloodletting under anesthesia, and the tibiae were harvested. Non-decalcified specimens of the proximal tibiae were prepared and photographed under a fluorescent microscope (BX-53, OLYMPUS). The bone morphology was measured using a morphometry system (Histometry RT digitizer, System Supply Co., Ltd.) and an analysis software (CSS-840 cancellous bone morphometry version, System Supply Co., Ltd.). The mineral apposition rate (MAR), per day, in the secondary cancellous bone was determined by measuring the distance between the tetracycline label and the calcein label in the secondary cancellous bone, and dividing the distance by the administration interval between the fluorescent labels (two days). […] The increase in the mineral apposition rate in the secondary cancellous bone in the No. 1 administration group would have resulted from the increase in the number of osteoblasts."}, "[4]": {"test_system": "ovariectomized (OVX) female rats", "test": "Postmenopausal osteoporosis model of ovariectomized rats", "format": "in vivo, rat", "conditions": "for bone density compared with sham operation group / volume of the cancellous bone compared with sham operation group: six months", "procedure": "Female rats (eight months old, ten rats in each group) underwent ovariectomy (OVX), and synthetic peptide No. 1 was administered to the rats by oral gavage using a gastric tube once a day from the first postoperative day for six months. The dose of the synthetic peptide was 1, 10 or 100 mg/kg·day."}, "[5]": {"test_system": "mouse-derived cell line ATDC5", "test": "Hyaluronic acid production-promoting activity (ELISA of culture supernatant)", "format": "cell-based", "conditions": "10 nmol/mL; supernatant after 48 hours of culture; FIG. 15", "procedure": "This study was performed using the mouse-derived cell line ATDC5 as used in Example 4. ATDC5 cells in the logarithmic growth phase were seeded at 2×10^4 cells/mL per well in a 24-well plate containing DMEM/F-12 (1:1) medium supplemented with 5% FCS (fetal calf serum), 10 μg/mL transferrin and 3×10^−8 M sodium selenite. The cells were precultured at 5% CO2 and 95% air at 37° C. On the next day, the medium in each well was removed, and medium containing the synthetic peptide (No. 1 or No. 6) at 10 nmol/mL was added. The cells were cultured for […]. As a control, medium without a synthetic peptide was added. After 48 hours of culture, the culture supernatants were collected, and their hyaluronic acid concentrations were measured using QnE Hyaluronic Acid ELISA Assay (Biotech Trading Partners). The concentrations of hyaluronic acid in the culture supernatants of the synthetic peptide addition group were calculated by subtracting the absorbance of the background from the absorbance of the supernatants, and fitting the resulting values to the reference curve prepared using the standard."}, "[6]": {"test_system": "Sprague-Dawley male rats at three weeks old", "test": "Bone growth promoting effect in adolescent rats (tibial growth plate, calcein label)", "format": "in vivo, rat", "conditions": "FIG. 13", "procedure": "One of the synthetic peptides (No. 1) or physiological saline (control) was administered to Sprague-Dawley male rats at three weeks old by oral gavage using a gastric tube once a day for four days. The dose of the synthetic peptide was 1, 10 or 100 mg/kg·day. As a positive control, human growth hormone (hGH) (Norditropin, Standard Commodity Classification No. of Japan: 872412) was subcutaneously administered at 20 μg/kg·day once a day for four days. After the administration on day 4, calcein was subcutaneously administered, and the rats were kept for one day. The rats were euthanized by bloodletting under anesthesia, and the tibiae were harvested. The tissue specimens of the tibial growth plates were prepared, and calcein deposition areas (fluorescent regions) on the tibial growth plates were measured under a fluorescent microscope to determine the longitudinal bone growth."}, "[7]": {"conditions": "oral 1, 10 or 100 mg/kg·day for six months"}, "[8]": {"conditions": "oral 1, 10 or 100 mg/kg·day for six months, significant vs OVX-control group"}},
  "note": "No end group written: not given here.",
  "data": [
    {"sequence": "VNPESEEE [No. 1]", "values": [
      {"measurement": "bone density of the tibiae", "setting": "[1]", "result": "tended to be higher in the synthetic peptide administration group than in the control group"},
      {"measurement": "length of the tibiae", "setting": "[1]", "result": "tended to be higher in the synthetic peptide administration group than in the control group"},
      {"measurement": "weight of the tibiae", "setting": "[1]", "result": "tended to be higher in the synthetic peptide administration group than in the control group"},
      {"measurement": "bone density in the femurs", "setting": "[2]", "result": "increased in a dose-dependent manner"},
      {"measurement": "cancellous bone volume in the proximal tibial metaphysis", "setting": "[2]", "result": "increased in a dose-dependent manner"},
      {"measurement": "mineral apposition rate (MAR) in the secondary cancellous bone, vs control group", "setting": "[3]; No. 1 oral 1, 10 or 100 mg/kg-day, hGH 500 μg/kg·day subcutaneous, FIG. 26", "result": "significant increase in the mineral apposition rate"},
      {"measurement": "osteoblast surface/bone surface (Ob.S/BS)", "setting": "[3]; oral 1, 10 or 100 mg/kg-day, FIG. 27", "result": "high percentage"},
      {"measurement": "number of osteoblasts/tissue volume (N.Ob/TV)", "setting": "[3]; oral 1, 10 or 100 mg/kg-day, FIG. 28", "result": "high number of osteoblasts"},
      {"measurement": "bone formation rate/bone surface (BFR/BS)", "setting": "[3]; oral 1, 10 or 100 mg/kg-day, FIG. 29", "result": "high rates"},
      {"measurement": "bone formation rate/bone surface (BFR/BS), vs control group", "setting": "[3]; oral dose of 10 mg/kg-day or more", "result": "significant increase in the bone formation rate"},
      {"measurement": "mineral apposition rate (MAR) in the secondary cancellous bone, vs hGH administration group", "setting": "[3]; oral dose of 10 mg/kg·day or more, FIG. 26", "result": "significant increase in the mineral apposition rate at a dose of 10 mg/kg·day or more as compared with the hGH administration group"},
      {"measurement": "bone density compared with sham operation group", "setting": "[4]; high-dose 100 mg/kg·day oral", "result": "equal or higher bone density as compared with the sham operation group"},
      {"measurement": "volume of the cancellous bone compared with sham operation group", "setting": "[4]; high-dose 100 mg/kg·day oral", "result": "equal or higher volume of the cancellous bone as compared with the sham operation group"},
      {"measurement": "bone density compared with sham operation group", "setting": "[4]; medium-dose 10 mg/kg·day oral", "result": "equal or higher bone density as compared with the sham operation group"},
      {"measurement": "volume of the cancellous bone compared with sham operation group", "setting": "[4]; medium-dose 10 mg/kg·day oral", "result": "equal or higher volume of the cancellous bone as compared with the sham operation group"},
      {"measurement": "OVX-induced increase in the trabecular separation", "setting": "[4]; [7]", "result": "tended to be inhibited"},
      {"measurement": "OVX-induced reduction in the trabecular numbers", "setting": "[4]; [7]", "result": "tended to be inhibited"},
      {"measurement": "OVX-induced reduction in the trabecular width", "setting": "[4]; [7]", "result": "tended to be inhibited"},
      {"measurement": "bone density of the distal femoral metaphysis", "setting": "[4]; [8]", "result": "increase in the bone density of the distal femoral metaphysis in a manner consistent with the increase in the dose of the synthetic peptide"},
      {"measurement": "cancellous bone volume in the proximal tibial metaphysis", "setting": "[4]; [8]", "result": "increased in the OVX-synthetic peptide administration group in a manner consistent with the increase in the dose"},
      {"measurement": "hyaluronic acid production-promoting activity (hyaluronic acid concentration in culture supernatant)", "setting": "[5]", "result": "showed hyaluronic acid production-promoting effect"},
      {"measurement": "effect of enhancing the increase in the height of the tibial growth plates, compared with hGH", "setting": "[6]; highest dose (100 mg/kg·day oral) vs hGH 20 μg/kg·day subcutaneous, four days", "result": "comparable to the effect of the subcutaneous administration of the human growth hormone"},
      {"measurement": "increase in the height of the tibial growth plates", "setting": "[6]; oral gavage 1, 10 or 100 mg/kg·day once a day for four days", "result": "enhanced in a manner consistent with the increase in the dose of the synthetic peptide"}
    ]}
  ]
}
